Patent US9856293B2, “Methods for inducing nestin expression of astrocytes by nestin-inducing synthetic peptides derived from the BC-box of the SOCS6 protein” (TOAGOSEI CO. LTD., priority 2013, dated 2018)
Ends that are not written are not given here.

Columns and labels:
Format in all cases: cell-based
[1] = test system: astrocytes derived from rat cerebral cortex (R-CxAs-520); experiment: Nestin expression inducing activity, western blot analysis of nestin and GFAP, astrocytes derived from the cerebral cortex; settings: peptide 5 μM, 2 days; for expression of GFAP compared to the culture without addition of the peptide: anti-GFAP antibody; for expression of nestin compared to the culture without addition of the peptide: anti-nestin antibody, FIG. 4
Method: (§1) Among the synthetic peptides obtained in Example 1, samples 1 to 3 were evaluated for nestin expression inducing activity by western blot analysis using an anti-nestin antibody. Cells used for the test were cultured cells of astrocytes derived from rat cerebral cortex (R-CxAs-520: available from Lonza). A comparative example was carried out without addition of the peptide. The evaluation test is detailed as follows.
In the same manner as in Example 4, the astrocytes derived from rat cerebral cortex were incubated in the presence of the peptide at a peptide concentration of 5 μM for 2 days. After the incubation was completed, total protein was extracted from cultured cells from each experimental sample in the same manner as in Example 3.
SDS-PAGE and western blot analysis were then carried out in the same manner as in Example 3 to examine expression of nestin and GFAP in each experimental sample. An internal standard used in the series of procedures was the GAPDH protein.
Lanes 1, 2, 3 and 4 are the results without addition of the peptide, with addition of sample 2, with addition of sample 3 and with addition of sample 1, respectively.

[2] = test system: astrocytes derived from rat brain hippocampus (R-HiAs-521); experiment: Nestin expression inducing activity, nestin gene expression by qRT-PCR, astrocytes derived from the hippocampus; settings: corrected with Actin β, peptide 5 μM, 2 days, FIG. 1
Method: (§2) Among the synthetic peptides obtained in Example 1, sample 1 (i.e. the nestin-inducing synthetic peptide of the present invention) was evaluated for nestin expression inducing activity by quantifying the expression level of the nestin gene. Cells used for the test were cultured cells of astrocytes derived from rat brain hippocampus (R-HiAs-521: available from Lonza). The evaluation test is detailed as follows.
The astrocytes derived from rat brain hippocampus were inoculated into a 6-well cell culture plate at a density of 1.0×10^5 cells/well. […]
After the incubation was completed, cultured cells from each experimental sample were washed with Cold PBS (−), and total RNA was extracted and purified using a commercially available RNA extraction and purification kit (NUCLEOSPIN™ RNA/Protein kit: available from Macherey Nagel). […] The purified RNA was quantified using Agilent 2100 Bioanalyzer (available from Agilent Technologies).
The purified RNA was subjected to qRT-PCR to examine the expression level of the nestin gene. […] RT-PCR employed the two-step RT-PCR method and quantitative PCR employed the TAQMAN® method. […]
The cDNA obtained in RT-PCR was then used as a template for quantitative PCR. […] Quantitative PCR reaction was carried out under the conditions of incubation at 95° C. for 10 seconds followed by 45 cycles of 95° C. for 15 seconds, 62° C. for 20 seconds and 72° C. for 20 seconds. […]

[3] = test system: astrocytes derived from rat brain hippocampus (R-HiAs-521); experiment: Nestin expression inducing activity, western blot analysis of nestin and GFAP, astrocytes derived from the hippocampus; settings: peptide 5 μM, 3 days
Method: as §1, with “sample” for “samples”, “(i.e. the nestin-inducing synthetic peptide of the present invention) was” for “to 3 were”, “brain hippocampus (R-HiAs-521:” for “cerebral cortex (R-CxAs-520:”
In the same manner as in Example 2, the astrocytes derived from rat brain hippocampus were incubated in the presence of the peptide at a peptide concentration of 5 μM for 3 days. After the incubation was completed, cultured cells from each experimental sample were washed with Cold PBS (−), and total protein was extracted using a commercially available protein extraction and purification kit (NucleoSpin™ RNA/Protein kit: available from Macherey Nagel). All procedures were carried out in the absence of proteases according to the instruction attached to the kit. The concentration of the extracted protein was quantified using RC DC Protein assay (available from BIO RAD).
According to the SDS (sodium dodecyl sulphate)-polyacrylamide electrophoresis (SDS-PAGE) and western blot analysis as described below, expression of nestin and GFAP in each experimental sample was examined. An internal standard used in the series of procedures was the GAPDH protein.
Specifically, proteins obtained from each experimental sample and a molecular weight marker (MagicMark™ XP Western Protein Standard: available from Life Technologies) were injected to a well of an SDS-polyacrylamide gel (precast gel for electrophoresis: available from Oriental Instruments Co., Ltd.) and SDS-PAGE was carried out. Electrophoresis of nestin was carried out on a 7.5% SDS-polyacrylamide gel and electrophoresis of GFAP and the GAPDH protein was carried out on a 5-20% SDS-polyacrylamide gel.
The proteins separated by SDS-PAGE were transferred (blotting) onto a PVDF (polyvinylidene difluoride) membrane which was then blocked in Perfect-Block (available from MoBiTec) diluted to 5% in PBS (−) containing Tween 20™ (hereinafter referred to as PBST (−)).
Nestin, GFAP and the GAPDH protein were detected with primary antibodies, an anti-nestin antibody (murine, available from Merck Millipore), an anti-GFAP antibody (murine, available from Progen Biotechnik) and an anti-GAPDH antibody (murine, available from Merck Millipore) diluted 500-, 5000- and 10000-fold, respectively, in PBST (−) by the reaction for 1 hour at room temperature. […]
Target proteins were then detected by reaction with the ECL prime Western blotting detection reagent (available from GE Healthcare) using the Luminescent image analyser LAS-3000 (available from Fujifilm Corporation). […]

[4] = test system: astrocytes derived from rat brain cerebral cortex (R-CxAs-520); experiment: Nestin expression inducing activity, nestin gene expression by qRT-PCR, astrocytes derived from the cerebral cortex; settings: corrected with Actin β, peptide 10 μM, 2 days, FIG. 3
Method: as §2, with “cerebral cortex (R-CxAs-520:” for “hippocampus (R-HiAs-521:”
The astrocytes derived from rat cerebral cortex were inoculated into a 6-well cell culture plate at a density of 1.0×10^5 cells/well. The cells were incubated in the AG medium overnight in a CO2 incubator at 37° C. and 5% CO2.
After the overnight incubation, the medium was replaced with an AG medium containing the peptide of sample 1 at the amount of 10 μM, and the incubation was continued under the same condition for 2 more days. A comparative example was carried out without addition of the peptide.
After the incubation was completed, total RNA was extracted from cultured cells from each experimental sample in the same manner as in Example 2. […]
The expression level of the nestin gene in each experimental sample was corrected with the expression level of Actin β in each experimental sample. The expression level of each gene is expressed as a value relative to the expression level of the gene in the sample without addition of the peptide being regarded as 1.

## NLQDLCRIKIRQCIGKKRTLRKNDRKKR (NLQDLCRIKIRQCIGKKRTLRKNDRKKR-NH2; cysteine pairing not given here) [sample 2, reference compound]
[1]
  expression of GFAP compared to the culture without addition of the peptide: difference in expression of nestin or GFAP was not confirmed
  expression of nestin compared to the culture without addition of the peptide: difference in expression of nestin or GFAP was not confirmed

## SLQYLCRFVIRQYTRKKRTLRKNDRKKR (SLQYLCRFVIRQYTRKKRTLRKNDRKKR-NH2) [sample 1]
[2]
  expression of the nestin gene compared to the culture without addition of the peptide: significant increase
[3]; anti-GFAP antibody
  expression of GFAP compared to the culture without addition of the peptide: difference in expression of GFAP was not confirmed
[3]; anti-nestin antibody, FIG. 2
  expression of nestin compared to the culture without addition of the peptide: significant increase
[3]
  co-expression of GFAP and nestin: co-expressed
  expression of nestin, times higher than the culture without addition of the peptide: ≥ 2 times
[4]
  expression of the nestin gene compared to the culture without addition of the peptide: significant increase
[1]
  expression of GFAP compared to the culture without addition of the peptide: difference in expression of GFAP was not confirmed
  expression of nestin compared to the culture without addition of the peptide: significant increase
  co-expression of GFAP and nestin: co-expressed
  expression of nestin, times higher than the culture without addition of the peptide: ≥ 2 times

## TLHQQCIRVLKNNIDKKRTLRKNDRKKR (TLHQQCIRVLKNNIDKKRTLRKNDRKKR-NH2) [sample 3, reference compound]
[1]
  expression of GFAP compared to the culture without addition of the peptide: difference in expression of nestin or GFAP was not confirmed
  expression of nestin compared to the culture without addition of the peptide: difference in expression of nestin or GFAP was not confirmed
